# Target: TNAP (Homo sapiens (Human), UniProt P05186)
# Assay: TNAP (PPi) inhibition assay, pyrophosphate as substrate
# Format: biochemical
# Method: Expression plasmids containing a secreted epitope-tagged TNAP were transfected into COS-1 cells for transient expression. The medium was replaced with Opti-MEM 24 h later and serum-free media containing secreted proteins was collected 60 hours after electroporation. The medium was dialyzed against TBS containing 1 mM MgCl2 and […] (to remove phosphate) and filtered through a […] cellulose acetate filter.
# To determine the inhibition selectivity for inhibitor candidates, human TNAP, PLAP or IAP were added to microtiter plates followed by addition of the substrate pNPP (0.5 mM) and activity was measured in 1 M DEA-HCl buffer, pH 9.8 or in 1 M Tris-HCl buffer, pH 7.5, containing 1 mM MgCl2 and 20 μM ZnCl2, in the presence of potential inhibitors (0-30 μM). TNAP, PLAP and IAP activities were adjusted to an approximate λA405 nm, equivalent to 1, measured after 30 min. Residual AP activity in the presence of inhibitors was expressed as percentage of the control activity. To investigate the mechanism of inhibition, double reciprocal plots of enzyme activity (expressed as mA405 nm min−1) vs. substrate concentration were constructed, in the presence of various concentrations of added inhibitors (0-30 μM). The y-axis intercepts of the 1/v vs. 1/[S] plots, were then plotted vs. [I] to graphically extract Ki values as the x-intercept in this plot. […] Inhibitors were further tested and sorted based on their kinetic properties at pH 7.4 using PPi, the relevant natural substrate of TNAP. […] Amounts of released phosphate were measured using the Biomol Green Reagent (Biomol Research Laboratories, Inc., Plymouth Meeting, Pa.).
row,SMILES,IC50 [nM]
1,"COC(=O)c1ccc(-c2cncc(NS(=O)(=O)c3cc(Br)ccc3OC)c2)cc1 [Example III-29, 4-[5-(5-Bromo-2-methoxy-benzenesulfonylamino)-pyridin-3-yl]-benzoic Acid Methyl Ester]",< 100
2,"COC(=O)c1ccc(-c2cncc(NS(=O)(=O)c3cc(Cl)ccc3OC)c2)cc1 [Example III-30, 4-[5-(5-Chloro-2-methoxy-benzenesulfonylamino)-pyridin-3-yl]-benzoic Acid Methyl Ester]",< 100
3,"COc1ccc(OC)c(S(=O)(=O)Nc2cncc(-c3ccc(C#N)cc3)c2)c1 [Example III-31, N-(5-(4-Cyanophenyl)pyridin-3-yl)-2,5-dimethoxybenzenesulfonamide]",< 100
4,"COc1ccc(Br)cc1S(=O)(=O)Nc1cncc(-c2ccc(C#N)cc2)c1 [Example III-32, 5-Bromo-N-(5-(4-cyanophenyl)pyridin-3-yl)-2-methoxybenzenesulfonamide]",< 100
5,"COc1ccc(Cl)cc1S(=O)(=O)Nc1cncc(-c2ccc(C#N)cc2)c1 [Example III-33, 5-Chloro-N-(5-(4-cyanophenyl)pyridin-3-yl)-2-methoxybenzenesulfonamide]",< 100
6,"COc1ccc(OC)c(S(=O)(=O)Nc2cncc(-c3ccccc3OC)c2)c1 [Example III-34, 2,5-Dimethoxy-N-[5-(2-methoxy-phenyl)-pyridin-3-yl]-benzenesulfonamide]",100 to 1000
7,"COc1ccccc1-c1cncc(NS(=O)(=O)c2cc(Br)ccc2OC)c1 [Example III-35, 5-Bromo-2-methoxy-N-[5-(2-methoxy-phenyl)-pyridin-3-yl]-benzenesulfonamide]",< 100
8,"COc1ccccc1-c1cncc(NS(=O)(=O)c2cc(Cl)ccc2OC)c1 [Example III-36, 5-Chloro-2-methoxy-N-[5-(2-methoxy-phenyl)-pyridin-3-yl]-benzenesulfonamide]",< 100
9,"COc1ccc(OC)c(S(=O)(=O)Nc2cncc(-c3ccccc3C)c2)c1 [Example III-37, 2,5-Dimethoxy-N-(5-(o-tolyl)pyridin-3-yl)benzenesulfonamide]",100 to 1000
10,"COc1ccc(Br)cc1S(=O)(=O)Nc1cncc(-c2ccccc2C)c1 [Example III-38, 5-Bromo-2-methoxy-N-(5-(o-tolyl)pyridin-3-yl)benzenesulfonamide]",100 to 1000
11,"COc1ccc(OC)c(S(=O)(=O)Nc2cncc(-c3ccccc3Cl)c2)c1 [Example III-40, N-[5-(2-Chloro-phenyl)-pyridin-3-yl]-2,5-dimethoxy-benzenesulfonamide]",< 100
12,"COc1ccc(Br)cc1S(=O)(=O)Nc1cncc(-c2ccccc2Cl)c1 [Example III-41, 5-Bromo-N-[5-(2-chloro-phenyl)-pyridin-3-yl]-2-methoxy-benzenesulfonamide]",< 100
13,"COc1ccc(Cl)cc1S(=O)(=O)Nc1cncc(-c2ccccc2Cl)c1 [Example III-42, 5-Chloro-N-[5-(2-chloro-phenyl)-pyridin-3-yl]-2-methoxy-benzenesulfonamide]",< 100
14,"COc1ccc(OC)c(S(=O)(=O)Nc2cncc(-c3ccccc3C(F)(F)F)c2)c1 [Example III-43, 2,5-Dimethoxy-N-[5-(2-trifluoromethyl-phenyl)-pyridin-3-yl]-benzenesulfonamide]",100 to 1000
15,"COc1ccc(Br)cc1S(=O)(=O)Nc1cncc(-c2ccccc2C(F)(F)F)c1 [Example III-44, 5-Bromo-2-methoxy-N-[5-(2-trifluoromethyl-phenyl)-pyridin-3-yl]-benzenesulfonamide]",100 to 1000
16,"COc1cccc(-c2cncc(NS(=O)(=O)c3cc(OC)ccc3OC)c2)c1 [Example III-46, 2,5-Dimethoxy-N-[5-(3-methoxy-phenyl)-pyridin-3-yl]-benzenesulfonamide]",< 100

row,SMILES,IC50 [nM]
1,"COc1cccc(-c2cncc(NS(=O)(=O)c3cc(Br)ccc3OC)c2)c1 [Example III-47, 5-Bromo-2-methoxy-N-[5-(3-methoxy-phenyl)-pyridin-3-yl]-benzenesulfonamide]",< 100
2,"COc1cccc(-c2cncc(NS(=O)(=O)c3cc(Cl)ccc3OC)c2)c1 [Example III-48, 5-Chloro-2-methoxy-N-[5-(3-methoxy-phenyl)-pyridin-3-yl]-benzenesulfonamide]",< 100
3,"COc1ccc(OC)c(S(=O)(=O)Nc2cncc(-c3cccc(C)c3)c2)c1 [Example III-49, 2,5-Dimethoxy-N-(5-m-tolyl-pyridin-3-yl)-benzenesulfonamide]",100 to 1000
4,"COc1ccc(Br)cc1S(=O)(=O)Nc1cncc(-c2cccc(C)c2)c1 [Example III-50, 5-Bromo-2-methoxy-N-(5-m-tolyl-pyridin-3-yl)-benzenesulfonamide]",100 to 1000
5,"COc1ccc(OC)c(S(=O)(=O)Nc2cncc(-c3cccc(Cl)c3)c2)c1 [Example III-52, N-[5-(3-Chloro-phenyl)-pyridin-3-yl]-2,5-dimethoxy-benzenesulfonamide]",100 to 1000
6,"COc1ccc(Br)cc1S(=O)(=O)Nc1cncc(-c2cccc(Cl)c2)c1 [Example III-53, 5-Bromo-N-[5-(3-chloro-phenyl)-pyridin-3-yl]-2-methoxy-benzenesulfonamide]",100 to 1000
7,"COc1ccc(Cl)cc1S(=O)(=O)Nc1cncc(-c2cccc(Cl)c2)c1 [Example III-54, 5-Chloro-N-[5-(3-chloro-phenyl)-pyridin-3-yl]-2-methoxy-benzenesulfonamide]",100 to 1000
8,"COc1ccc(-c2cncc(NS(=O)(=O)c3cc(OC)ccc3OC)c2)c(OC)c1 [Example III-55, N-(5-(2,4-Dimethoxyphenyl)pyridin-3-yl)-2,5-dimethoxybenzenesulfonamide]",< 100
9,"COc1ccc(-c2cncc(NS(=O)(=O)c3cc(Br)ccc3OC)c2)c(OC)c1 [Example III-56, 5-Bromo-N-(5-(2,4-dimethoxyphenyl)pyridin-3-yl)-2-methoxybenzenesulfonamide]",< 100
10,"COc1ccc(-c2cncc(NS(=O)(=O)c3cc(Cl)ccc3OC)c2)c(OC)c1 [Example III-57, 5-Chloro-N-(5-(2,4-dimethoxyphenyl)pyridin-3-yl)-2-methoxybenzenesulfonamide]",< 100
11,"COc1ccc(OC)c(S(=O)(=O)Nc2cncc(-c3ccccn3)c2)c1 [Example III-58, N-([2,3′-Bipyridin]-5′-yl)-2,5-dimethoxybenzenesulfonamide]",< 100
12,"COc1ccc(Br)cc1S(=O)(=O)Nc1cncc(-c2ccccn2)c1 [Example III-59, N-([2,3′-Bipyridin]-5′-yl)-5-bromo-2-methoxybenzenesulfonamide]",< 100
13,"COc1ccc(Cl)cc1S(=O)(=O)Nc1cncc(-c2ccccn2)c1 [Example III-60, N-([2,3′-Bipyridin]-5′-yl)-5-chloro-2-methoxybenzenesulfonamide]",< 100
14,"COc1ccc(Br)cc1S(=O)(=O)Nc1cncc(-c2cccnc2)c1 [Example III-62, N-([3,3′-Bipyridin]-5-yl)-5-bromo-2-methoxybenzenesulfonamide]",< 100
15,"COc1ccc(Br)cc1S(=O)(=O)Nc1cncc(-c2ccncc2)c1 [Example III-65, N-([3,4′-Bipyridin]-5-yl)-5-bromo-2-methoxybenzenesulfonamide]",< 100
16,"COc1ccc(OC)c(S(=O)(=O)Nc2cncc(-c3ccco3)c2)c1 [Example III-67, N-(5-(Furan-2-yl)pyridin-3-yl)-2,5-dimethoxybenzenesulfonamide]",< 100
